Test: fluorescent dye diffusion assays in simulated wound fluid
Type: physicochemical
Protocol: For example, in experiments using rhodamine B as a tracer molecule, diffusion coefficients within the patterned hydrogel matrix increased from 1.4×10^−7 cm^2/s at 35° C. to 3.6×10^−7 cm^2/s at 37.5° C., confirming the gating effect of the thermoresponsive architecture. The permeability enhancement facilitates more rapid passive diffusion of bioactive agents—such as hydrogen peroxide from raw honey or flavonoids from propolis extract—from the surrounding microcapsules into the wound site, even before active actuator-based release is triggered. This early-stage, temperature-coupled passive transport acts as a preemptive therapeutic buffer, delivering antimicrobials during acute inflammatory flares while reducing latency between pathogenic escalation and drug availability.

- diffusion coefficient within the patterned hydrogel matrix (at 35° C.): 1.4×10^−7 cm^2/s
- diffusion coefficient within the patterned hydrogel matrix (at 37.5° C.): 3.6×10^−7 cm^2/s
SMILES: CCN(CC)c1ccc2c(-c3ccccc3C(=O)O)c3ccc(=[N+](CC)CC)cc-3oc2c1.[Cl-] [rhodamine B]

— patent US20250339091A1, “HONEY BEE-DERIVED BIOACTIVE WOUND DRESSING WITH SUSTAINED ANTIMICROBIAL RELEASE” (priority 2025, published 2025)
